In patent US20060166934A1, “Composition comprising phytosphingosine derivatives for apoptosis induction” (Tae-Yoon Kim, priority 2002, published 2006):

Legend:
[1] = test system: human keratinocyte cell line HaCaT cells; assay: MTT assay, cytotoxicity in human keratinocyte cell line; assay type: cell-based
Method: (§1) Firstly, the cytotoxicity is measured by the MTT assay. Phytosphingosine (PS), phytosphingosine-HCl (PS-HCl), C6-phytosphingosine (C6-PS), CLA-phytosphingosine (CLA-PS), tetraacetyl phytosphingosine (TAPS), and N-acetyl phytosphingosine (NAPS) are dissolved into DMSO to have the final concentration of 1-100 μM.
(§2) In order to study the effects of the compositions of the present invention on the cytotoxicity in the human keratinocyte cell line HaCaT cells, the cell viability is analyzed by the MTT (3-[4,5-dimethylthiazol-2-yl]-2,5-diphenyltetrazolium bromide) assay. HaCaT cells are supplied by Professor N. Fuseng of German Cancer Research in Germany. HaCaT cells are seeded in a density of 1×10^6 cells in a […] and cultured in DMEM (Dulbecco's Modified Eagle Medium) containing 10% fetal bovine serum (FBS, GIBCO), 100 units/ml penicillin, and 100 μg/ml streptomycin for 48 hours. They are treated with trypsin and 1-2×10^4 cells per well are seeded again in a 96-well plate by using a serum-free culture medium, about 3 hours after which they are cultured by treatment with phytosphingosine derivatives. After they are cultured for 24 hours, the MTT reagent is added at a concentration of 2 mg/ml, cultured for 4 hours, suspended in DMSO after removing the culture medium completely in order to measure O.D. at 540 nm. C2-ceramide is used for comparison.

[2] = test system: A431 cells, human skin cancer cell line; assay: MTT assay, cytotoxicity in human skin cancer cell line; assay type: cell-based
Method: as §1, §2
In order to study the effects of the compositions of the present invention on the cytotoxicity in A431 cells, human skin cancer cell line, the MTT assay is used. The method of cell culture and MTT assay are the same as those in the above method. C2-ceramide is used for comparison.

[3] = test system: human umbilical vein endothelial cells (HUVEC); assay: MTT assay, cytotoxicity in HUVEC; assay type: cell-based
Method: as §1, §2
The MTT assay is used for the above purpose. Primary human umbilical vein endothelial cells are cultured from the human umbilical vein. The method of cell culture and the MTT assay are the same as those in the above. C2-ceramide is used for comparison.

[4] = test system: immune cells (T cells, B cells, macrophages, monocytes) from spleen of mice; assay: MTT assay, cytotoxicity in immune cells separated from spleen of mice; assay type: cell-based
Method: The effect of the composition of the present invention on the cytotoxicity in immune cells (T cells, B cells, macrophages, monocytes, etc.) was examined. The spleen was removed from normal mice (BDF) and single cells were obtained from the spleen by mechanical aggregation method. And mononuclear cells containing T cells, B cells, macrophages and monocytes were isolated from single cells by density gradient centrifugation method using Ficoll Hypaque. Briefly, single cells were treated with PBS and overlayed on Ficoll Hypaque and centrifuged at 1500 rpm for 30 min. After centrifugation, the cells around the boundary of the Ficoll-Hapaque were collected and washed three times with PBS. The isolated cells were cultured for 24 hours in the presence of 1, 10, 50 and 100 μM of NAPS, TAPS, and PS to examine the effect of cytotoxicity, i.e. the degree of proliferation of the cells. C2-ceramide was used as control. The medium used in this experiment was RPMI 1640 suplemented with 10% of FBS and 100 μg/ml of penicillin and streptomycin.

[5] = test system: peripheral blood mononuclear cells (PBMC); assay: MTT assay, cytotoxicity in peripheral blood mononuclear cells; assay type: cell-based, human; conditions: up to 100 μM, 24 hours, FIG. 3
Method: The effects of the composition of the present invention on the cytotoxicity in immune cells (T cells, B cells, macrophages, monocytes, etc.) obtained from human blood were examined. The blood was obtained from healthy volunteers and PBMC from the blood by mechanical aggregation method. And mononuclear cells containing T cells, B cells, macrophages and monocytes were isolated from single cells by density gradient centrifugation method using Ficoll Hypaque. Briefly, single cells were treated with PBS and overlayed on Ficoll Hypaque and centrifuged at 1500 rpm for 30 min. After centrifugation, the cells around the boundary of the Ficoll-Hapaque were collected and washed three times with PBS. […] And RPMI with 10% of serum was used as a medium. The isolated cells were cultured for 24 hours in the presence of 1, 10, 50 and 100 μM of NAPS, TAPS, and PS to examine the effect of cytotoxicity, i.e. the degree of proliferation of the cells. C2-ceramide was used as control.

Th1 cells activation = assay: Mixed leukocyte reaction (MLR), Th1 cells activation by TNBSO3, MTT assay; assay type: cell-based, mice; conditions: MLR with TNBSO3-conjugated stimulator cells, FIG. 4
Method: Whether the composition of the present invention has a suppressive effect on the Th1 cells activation which isolate […], IL-12, etc. by reacting with TNBSO3 […] was examined.
The mononuclear cells obtained from spleen of mice as described the above 4 were used for responder cells, and TNBSO3-conjugated cells were used for stimulator cells. The stimulator cells were obtained as follows:
The mononuclear cells were adjusted to be 2×10^7 cells/ml in PBS and the same volume of 20 mM TNBSO3 was added and incubated at 37° C. for 10 min in the dark state. After incubation, the cells wrer washed three times with PBS.
(§3) Each 2×10^5 responder cells and stimulator cells were mixed with each other and cultured for 5 days on the 96-well plate. And RPMI with 10% of serum was used as a medium.
(§4) The above cells were cultured for 24 hours in the presence of 1, 10, 50 and 100 μM of NAPS, TAPS, and PS to examine the proliferation of the cells.
(§5) C2-ceramide was used as control.

[6] = test system: Th1 cells activation against allogenic cells (PBMC); assay: Reactions among allogenic cells, Th1 cells activation, MTT assay; assay type: cell-based, human; conditions: 50 μM, FIG. 5
Source text: Whether the composition of the present invention has a suppressive effect on the Th1 cells activation by allogenic cells in immune reation was examined.
PBMC obtained from different volunteers as described in the above 5 were used for responder cells and stimulator cells respectively. PBMC for stimulator cells were used after X-ray irradiation (3000 rad) to inhibit the proliferation of stimulator cells.
as §3, §4, §5

[7] = test system: HaCaT cells human keratinocyte cell line; assay: MTT assay, combined administration with Vit D3 or calcipotriol; assay type: cell-based; conditions: 24 hours; for Cell viability: HaCaT, in %
Method: In order to study the synergistic effect in the cytotoxicity when the compositions of the present invention are administered in combination with Vit D3 or calcipotriol, the cell viability is analyzed by MTT assay method in HaCaT cells human keratinocyte cell line.
To HaCaT cells, 1 μM of Vit D3 or calcipotriol, or 10 μM each of NAPS and TAPS, is administered singly or in combination with each other, and they are cultured for 24 hours. And the effects of these drugs on the cytotoxicity according to the single or combined administration are observed by MTT assay. C2-ceramide is used for comparison.

caspase-3 = assay: Immunoblot analysis of active caspase-3; assay type: cell-based, human; conditions: HaCaT, FIG. 11
Method: In the confirmation of apoptosis-related proteins, the immunoblot analysis is performed in order to look into the effects of the compositions of the present invention on the expression of caspase-3, p53, and Chk1 proteins related to the induction of apoptosis.
HaCaT cells are cultured on a 100-mm dish and collected at the indicative time. The proteins are extracted by adding 500 μl of RIPA lysis buffer (1% Nonidet P-40, 1% sodium deoxycholate, 0.1% SDS, […], 0.01 M sodium phosphate, pH 7.2, 2 mM EDTA, 50 mM sodium fluoride and 0.2 mM sodium vanadate), and the concentration is measured by using the Bradford method. 1
Extracted proteins is electrophoresed on 12% polyacrylamide gel, and they are transferred to the nitrocellulose membrane. The membrane blocked with 5% non-fat milk is reacted with the primary antibodies (caspase-3, p53, and Chk1), washed, and reacted with the secondary HRP-conjugated antibody. The intensity of proteins is analyzed by using the ECL kit.

HaCaT cells = assay: MTT assay, combined treatment with UVB irradiation; assay type: cell-based, human; design: Cell viability: unit not given here; conditions: HaCaT
Method: In order to study the synergistic effect in the cytotoxicity by the cotreatment with administration of the compositions of the present invention and with UVB irradiation, the cell viability is analyzed by MTT assay method in HaCaT cells. On a 100-mm dish, 1×10^6 HaCaT cells are seeded and cultured in DMEM containing 10% fetal bovine serum, 100 units/ml penicillin, and 100 μg/ml streptomycin for 48 hours. They are treated with trypsin, and 1-2×10^4 cells per well are seeded on a 96-well plate again by using a serum-free medium, which is removed after about 3 hours. HaCaT cells are washed with PBS three times, and 3.5 ml of PBS per plate is added. It is then irradiated with 200 J/m^2 of UVB. After irradiation, the medium is replaced with a DMEM medium. Then it is treated with the phytosphingosine derivatives of the present invention, and cultured for 24 hours. After 2 mg/ml of the MTT reagent is added, it is cultured for 4 hours. The medium is removed completely, the cells are suspended in DMSO, and O.D. is measured at 540 nm.

How did the Cell viability ([1]; 1 µM) turn out when CCCCCCCCCCCCC/C=C/[C@@H](O)[C@H](CO)NC(C)=O [C2-ceramide, reference compound] was run?
Its Cell viability is 97 ± 3.8.

And the Cell viability ([1]; 3 µM)?
Its Cell viability is 98 ± 2.5.

And the Cell viability ([1]; 10 µM)?
The Cell viability was 75 ± 1.3.

What about the Cell viability ([1]; 30 µM) of the same molecule?
Its Cell viability is 33 ± 0.6.

What about the Cell viability ([2]; 3 µM) of the same molecule?
The Cell viability was 113 ± 19.8.

And the Cell viability ([2]; 10 µM)?
The Cell viability was 97 ± 14.7.

And the Cell viability ([2]; 30 µM)?
The Cell viability was 82 ± 1.4.

And the Cell viability ([2]; 50 µM)?
Its Cell viability is 74 ± 12.8.

What about the Cell viability ([3]; 3.5 µM) of the same molecule?
The Cell viability was 90 ± 11.6.

And the Cell viability ([3]; 7 µM)?
The Cell viability was 60 ± 7.7.

And the Cell viability ([3]; 15 µM)?
Its Cell viability is 61 ± 8.4.

What about the Cell viability ([3]; 30 µM) of the same molecule?
The Cell viability was 34 ± 2.3.

What about the IC50 [4] of the same molecule?
The IC50 was ~75 µM.

What about the “cytotoxicity to PBMC” value [5] of the same molecule?
Its value is “did not show the cytotoxicity”.

What about the “concentration showing a suppressive effect on Th1 cells activation” value (Th1 cells activation) of the same molecule?
Its value is 50 µM.

And the “suppressive effect on Th1 cells activation against allogenic cells” value [6]?
The value was “almost no suppressive effect”.

And the Cell viability ([7]; 10 μM combined with Vit D3 (1 μM))?
Its Cell viability is 71 ± 9.

What about the Cell viability ([7]; 10 μM combined with calcipotriol (1 μM)) of the same molecule?
Its Cell viability is 70 ± 4.

What about the Cell viability ([7]; 10 μM singly) of the same molecule?
The Cell viability was 78 ± 2.

And the “time to maximum active caspase-3” value (caspase-3; after treatment)?
Its value is ≤ 3 h.

And the “maximum increase of active caspase-3 (expression of induction)” value (caspase-3; immunoblot)?
The value was 2.5 folds.

CCCCCCCCCCCCCCC(O)C(O)C(CO)NC(=O)CCCCC (centres unmarked) [C6-PS, C6-phytosphingosine] was tested. Which Cell viability ([1]; 1 µM) did it give?
Its Cell viability is 84 ± 16.8.

What about the Cell viability ([1]; 3 µM) of the same molecule?
Its Cell viability is 96 ± 7.2.

And the Cell viability ([1]; 10 µM)?
The Cell viability was 74 ± 10.1.

And the Cell viability ([1]; 30 µM)?
Its Cell viability is 87 ± 1.3.

And the Cell viability ([2]; 3 µM)?
The Cell viability was 106 ± 9.7.

What about the Cell viability ([2]; 10 µM) of the same molecule?
The Cell viability was 61 ± 8.1.

And the Cell viability ([2]; 30 µM)?
Its Cell viability is 57 ± 10.4.

What about the Cell viability ([2]; 50 µM) of the same molecule?
The Cell viability was 44 ± 9.6.

Which results are given for CCCCCCCCCCCCCC[C@@H](O)[C@@H](O)[C@@H](N)CO.Cl [PS-HCl, phytosphingosine-HCl]?
Cell viability ([1]; human, 24 h, 1 µM): 100 ± 4.1; Cell viability ([1]; human, 24 h, 3 µM): 101 ± 2.2; Cell viability ([1]; human, 24 h, 10 µM): 79 ± 7.0; Cell viability ([1]; human, 24 h, 30 μM): 36 ± 6.8; Cell viability ([2]; human, 24 h, 3 µM): 105 ± 5.8; Cell viability ([2]; human, 24 h, 10 µM): 109 ± 8.6; Cell viability ([2]; human, 24 h, 30 μM): 7 ± 1.6; Cell viability ([2]; human, 24 h, 50 μM): 2 ± 0.2; cytotoxicity ([2]; human, 24 h, 50 μM): 95-98%; Cell viability (HaCaT cells; 1 μM + UVB 200 J/m^2, 24 hours): 39 ± 4.5; Cell viability (HaCaT cells; 1 μM, no UVB, 24 hours): 83 ± 7.9; Cell viability (HaCaT cells; 3 μM + UVB 200 J/m^2, 24 hours): 24 ± 2.0; Cell viability (HaCaT cells; 3 μM, no UVB, 24 hours): 78 ± 10.0; Cell viability (HaCaT cells; 5 μM + UVB 200 J/m^2, 24 hours): 25 ± 1.9; Cell viability (HaCaT cells; 5 μM, no UVB, 24 hours): 78 ± 6.7; Cell viability (HaCaT cells; 10 μM + UVB 200 J/m^2, 24 hours): 2 ± 0.5; Cell viability (HaCaT cells; 10 μM, no UVB, 24 hours): 75 ± 8.2

Which results are given for C=C1CC[C@H](O)C/C1=C/C=C1\CCC[C@]2(C)[C@@H]([C@H](C)CCCC(C)C)CC[C@@H]12 [Vit D3, vitamin D3, reference compound]?
toxicity ([7]; 1 μM singly): 19%; Cell viability ([7]; 1 μM singly): 81 ± 3

Which results are given for CLA-phytosphingosine [CLA-PS]?
Cell viability ([1]; 1 µM): 66 ± 7.8; Cell viability ([1]; 3 µM): 64 ± 9.9; Cell viability ([1]; 10 µM): 58 ± 0.4; Cell viability ([1]; 30 µM): 55 ± 9.1; Cell viability ([2]; 3 µM): 91 ± 11.0; Cell viability ([2]; 10 µM): 98 ± 12.9; Cell viability ([2]; 30 µM): 60 ± 6.2; Cell viability ([2]; 50 µM): 65 ± 5.5
